ChEMBL document CHEMBL2034850, “Radiosynthesis of a ¹⁸F-labeled 2,3-diarylsubstituted indole via McMurry coupling for functional characterization of cyclooxygenase-2 (COX-2) in vitro and in vivo” (Bioorg Med Chem, 2012)

Tests used:
HT-29 [1] = settings: human, ht-29, 4 h
Description: Cellular uptake in human HT-29 monolayers assessed per mg of protein at 0.4 MBq after 4 hrs by gamma counting

HT-29 [2] = test: Cellular uptake in human HT-29 spheroids of diameter 600+/-10 um assessed per mg of protein at 0.4 MBq after 4 hrs by gamma counting; type: ADME, cell-based; settings: ht-29, 4 h
HT-29 [3] = test: Cellular uptake in human HT-29 spheroids of diameter 300+/-10 um assessed per mg of protein at 0.4 MBq after 4 hrs by gamma counting; type: ADME, cell-based; settings: ht-29, 4 h

## O=[N+]([O-])c1nccn1CC(O)C[18F] (stereo not drawn) [[18F]FLUOROMISONIDAZOLE]
HT-29 [1]
  Drug uptake: 1.03 %ID
HT-29 [2]
  Drug uptake: 9.86 %ID
HT-29 [3]
  Drug uptake: 1.17 %ID
